In the CheMixHub viscosity set:

Test: xn = mol fraction of the nth substance listed

NCc1ccccc1 + CC(C)CCO
viscosity [mPa·s], 101.33 kPa
Conditions | x1 = 0.0999 | x1 = 0.1999 | x1 = 0.3 | x1 = 0.4 | x1 = 0.5 | x1 = 0.6 | x1 = 0.7 | x1 = 0.8 | x1 = 0.9
298.15 K | 3.425 | 3.149 | 2.901 | 2.684 | 2.474 | 2.284 | 2.103 | 1.941 | 1.806
303.15 K | 2.914 | 2.672 | 2.455 | 2.259 | 2.099 | 1.937 | 1.803 | 1.683 | 1.582
308.15 K | 2.536 | 2.319 | 2.142 | 1.979 | 1.833 | 1.706 | 1.602 | 1.51 | 1.441

CCOC(=O)CCBr + CCCCCC
303.15 K, 101 kPa
Conditions | viscosity [mPa·s]
x1 = 0.2142 | 0.3919
x1 = 0.4043 | 0.55
x1 = 0.5019 | 0.674
x1 = 0.6029 | 0.8315
x1 = 0.8046 | 1.263

CC(CC(C)(C)C)CP(=O)([O-])CC(C)CC(C)(C)C.CCCCCCCC[P+](C)(C)C (stereo unspecified) + CCCCCCCCCCCC
viscosity [mPa·s], 101 kPa
Conditions | 298.15 K | 303.15 K | 308.15 K | 313.15 K | 318.15 K | 323.15 K
x2 = 0.24 | 172 | 129 | 99.8 | 79.4 | 63.3 | 51.3
x2 = 0.41 | 58.2 | 46 | 36.5 | 30 | 25 | 21.3
x2 = 0.55 | 23.8 | 20.1 | 17.1 | 14.9 | 12.9 | –

CC(C)NC(C)C + CCCCCCCCO
viscosity [mPa·s], 101 kPa
Conditions | 298.15 K | 303.15 K | 308.15 K
x1 = 0.0552 | 6.422 | 5.366 | 4.483
x1 = 0.1034 | 5.774 | 4.866 | 4.045
x1 = 0.1579 | 5.107 | 4.286 | 3.62
x1 = 0.2037 | 4.51 | 3.87 | 3.235
x1 = 0.2551 | 3.898 | 3.326 | 2.826
x1 = 0.3074 | 3.339 | 2.871 | 2.455
x1 = 0.4058 | 2.441 | 2.128 | 1.84
x1 = 0.5058 | 1.758 | 1.535 | 1.352
x1 = 0.606 | 1.265 | 1.143 | 1.046
x1 = 0.7025 | 0.916 | 0.84 | 0.76
x1 = 0.8044 | 0.664 | 0.616 | 0.58
x1 = 0.8545 | 0.571 | 0.537 | 0.502
x1 = 0.8931 | 0.509 | 0.487 | 0.452
x1 = 0.9418 | 0.442 | 0.431 | 0.401

CCCCCCCCCCCCCCCCCCCc1ccccc1 + CCCCCCCCCCCCCCCCCCC
313.15 K, 101 kPa
Conditions | viscosity [mPa·s]
x2 = 0.1066 | 7.51
x2 = 0.1924 | 7.01
x2 = 0.433 | 5.74
x2 = 0.4887 | 5.47
x2 = 0.6377 | 4.83
x2 = 0.7465 | 4.38
x2 = 0.8251 | 4.09

S=C=S + Cc1ccccc1
298.15 K, 101 kPa
Conditions | viscosity [mPa·s]
x1 = 0.1 | 0.5295
x1 = 0.2 | 0.5063
x1 = 0.3 | 0.4837
x1 = 0.4 | 0.462
x1 = 0.5 | 0.4412
x1 = 0.6 | 0.4217
x1 = 0.7 | 0.4035
x1 = 0.8 | 0.3868
x1 = 0.9 | 0.3718
x2 = 0.06082 | 0.37
x2 = 0.3361 | 0.417
x2 = 0.587 | 0.469

S=C=S + CC(C)=O
viscosity [mPa·s]
Conditions | 293.15 K | 298.15 K
101 kPa, x1 = 0.035 | 0.32 | 0.3065
101 kPa, x1 = 0.107 | 0.316 | 0.3025
101 kPa, x1 = 0.167 | 0.315 | 0.3015
101 kPa, x1 = 0.202 | 0.314 | 0.301
101 kPa, x1 = 0.304 | 0.316 | 0.3015
101 kPa, x1 = 0.408 | 0.319 | –
101 kPa, x1 = 0.498 | 0.324 | 0.31
101 kPa, x1 = 0.633 | 0.3325 | 0.3185
101 kPa, x1 = 0.762 | 0.343 | –
101 kPa, x1 = 0.89 | 0.354 | 0.3365
101.33 kPa, x2 = 0.1384 | – | 0.3361
101.33 kPa, x2 = 0.2716 | – | 0.3258
101.33 kPa, x2 = 0.3443 | – | 0.3242
101.33 kPa, x2 = 0.4624 | – | 0.3103
101.33 kPa, x2 = 0.5524 | – | 0.3035
101.33 kPa, x2 = 0.6431 | – | 0.3003
101.33 kPa, x2 = 0.7358 | – | 0.2975
101.33 kPa, x2 = 0.8389 | – | 0.2974
101.33 kPa, x2 = 0.9171 | – | 0.2993

CCCCCCCCCc1ccccc1 + CCCCCCC
313.15 K, 100 kPa
Conditions | viscosity [mPa·s]
x2 = 0.097 | 1.82
x2 = 0.265 | 1.398
x2 = 0.405 | 1.111
x2 = 0.523 | 0.918
x2 = 0.671 | 0.691
x2 = 0.754 | 0.59
x2 = 0.86 | 0.411

CCCCCCCCCCCO + CCCCCCCCO
viscosity [mPa·s]
Conditions | 293.15 K | 298.15 K | 308.15 K | 318.15 K
101 kPa, x2 = 0.1003 | – | 13.35 | – | –
101 kPa, x2 = 0.6998 | 10.95 | – | – | –
101.8 kPa, x2 = 0.1273 | – | 13.25 | 9.151 | 6.474
101.8 kPa, x2 = 0.3622 | – | 11.61 | 8.096 | 5.781
101.8 kPa, x2 = 0.5698 | – | 10.24 | 7.208 | 5.187
101.8 kPa, x2 = 0.756 | – | 9.094 | 6.447 | 4.673
101.8 kPa, x2 = 0.9212 | – | 7.658 | 5.5 | 4.027
